This is an account of results in patent publication US20250353864A1, “INDAZOLE CONTAINING MACROCYCLES AND THEIR USE” (BLOSSOMHILL THERAPEUTICS, INC., priority 2022, published 2025).

Common to all, as to type: biochemical
The target of one experiment is EGFR WT (Homo sapiens (Human), UniProt P00533). Description: HotSpot radiometric kinase assay (Reaction Biology), EGFR WT. The settings on record: 10 μM ATP. The method in brief:
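Enzyme and substrate pairs were exposed to inhibitor for roughly 20 min before radiolabelled ATP (10 μM final) was introduced; the reaction proceeded 120 min at ambient temperature in pH 7.5 buffer with 1% DMSO, and phosphorylated product was captured on P81 filters for IC50 determination.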

The target of experiment [1] is EGFR L858R/T790M/C797S mutant (Homo sapiens (Human), UniProt P00533, C797S/L858R/T790M). Description: HotSpot radiometric kinase assay, EGFR L858R/T790M/C797S mutant. The conditions noted are these: 10 μM ATP. The method in brief: (§1)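 Kinase, substrate and cofactors are mixed in 20 mM Hepes pH 7.5 with 10 mM MgCl2, 1 mM EGTA, 2 mM DTT and 1% DMSO. Compound is added, and about 20 min later ATP/33P-ATP (10 μM final) starts a 120-min room-temperature reaction, which is then spotted onto P81 paper.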

In a further experiment the target is EGFR (D770_N771insNPG) (Homo sapiens (Human), UniProt P00533, INS770NPG). As to the kind of experiment: HotSpot radiometric kinase assay, EGFR (D770_N771insNPG). The settings on record: 10 μM ATP, read-out: EGFR (Δ770_N771insNPG) IC50. Summed up:
as §1

In experiment [2] the target is EGFR Δ746-750/C797S mutant (Homo sapiens (Human), UniProt P00533, C797S/DEL746-750). Description: HotSpot radiometric kinase assay, EGFR Δ746-750/C797S mutant. The conditions noted are these: 10 μM ATP. Summed up:
as §1

A further experiment concerns the target CLK4 (Homo sapiens (Human), UniProt Q9HAZ1). As to the kind of experiment: Inhibition of CLK4 kinase activity evaluated at Nanosyn (ADP-Glo). The conditions noted are these: ADP-Glo luminescence. Summed up: (§2)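 ADP-Glo luminescence read-out of ADP produced by each kinase acting on substrate, with ATP added to start the reaction. Buffer: 100 mM HEPES pH 7.5, 5 mM MgCl2, Triton X-100, BSA, DTT, phosphatase inhibitors; DMSO 1%. Inhibition calculated against no-inhibitor and no-enzyme controls.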

In another experiment the target is EGFR L858R mutant (Homo sapiens (Human), UniProt P00533, L858R). As to the kind of experiment: HotSpot radiometric kinase assay, EGFR L858R mutant. The conditions noted are these: 10 μM ATP. Summed up: as §1
For another experiment, the target named is CLK1 (Homo sapiens (Human), UniProt P49759). Description: Inhibition of CLK1 kinase activity evaluated at Nanosyn (ADP-Glo). The settings on record: ADP-Glo luminescence. Summed up:
as §2
(In general: ADP-Glo first removes unused ATP, then detects ADP through luciferase.)

The next experiment deals with EGFR Δ746-750 mutant (Homo sapiens (Human), UniProt P00533, DEL746-750). Description: HotSpot radiometric kinase assay, EGFR Δ746-750 mutant. The settings on record: 10 μM ATP. The method in brief:
as §1

For a further experiment, the target named is EGFR L858R/T790M mutant (Homo sapiens (Human), UniProt P00533, L858R/T790M). Description: HotSpot radiometric kinase assay, EGFR L858R/T790M mutant. The settings on record: 10 μM ATP. Summed up: as §1
Another experiment concerns the target CLK3 (Homo sapiens (Human), UniProt P49761). As to the kind of experiment: Inhibition of CLK3 kinase activity evaluated at Nanosyn (ADP-Glo). The settings on record: ADP-Glo luminescence. Summed up: as §2
Another experiment addresses CLK2 (Homo sapiens (Human), UniProt P49760). As to the kind of experiment: Inhibition of CLK2 kinase activity evaluated at Nanosyn (ADP-Glo). The settings on record: ADP-Glo luminescence. Summed up: as §2

Molecules are shown by their SMILES.

Sequence of EGFR L858R mutant (P00533 25-1210 L858R): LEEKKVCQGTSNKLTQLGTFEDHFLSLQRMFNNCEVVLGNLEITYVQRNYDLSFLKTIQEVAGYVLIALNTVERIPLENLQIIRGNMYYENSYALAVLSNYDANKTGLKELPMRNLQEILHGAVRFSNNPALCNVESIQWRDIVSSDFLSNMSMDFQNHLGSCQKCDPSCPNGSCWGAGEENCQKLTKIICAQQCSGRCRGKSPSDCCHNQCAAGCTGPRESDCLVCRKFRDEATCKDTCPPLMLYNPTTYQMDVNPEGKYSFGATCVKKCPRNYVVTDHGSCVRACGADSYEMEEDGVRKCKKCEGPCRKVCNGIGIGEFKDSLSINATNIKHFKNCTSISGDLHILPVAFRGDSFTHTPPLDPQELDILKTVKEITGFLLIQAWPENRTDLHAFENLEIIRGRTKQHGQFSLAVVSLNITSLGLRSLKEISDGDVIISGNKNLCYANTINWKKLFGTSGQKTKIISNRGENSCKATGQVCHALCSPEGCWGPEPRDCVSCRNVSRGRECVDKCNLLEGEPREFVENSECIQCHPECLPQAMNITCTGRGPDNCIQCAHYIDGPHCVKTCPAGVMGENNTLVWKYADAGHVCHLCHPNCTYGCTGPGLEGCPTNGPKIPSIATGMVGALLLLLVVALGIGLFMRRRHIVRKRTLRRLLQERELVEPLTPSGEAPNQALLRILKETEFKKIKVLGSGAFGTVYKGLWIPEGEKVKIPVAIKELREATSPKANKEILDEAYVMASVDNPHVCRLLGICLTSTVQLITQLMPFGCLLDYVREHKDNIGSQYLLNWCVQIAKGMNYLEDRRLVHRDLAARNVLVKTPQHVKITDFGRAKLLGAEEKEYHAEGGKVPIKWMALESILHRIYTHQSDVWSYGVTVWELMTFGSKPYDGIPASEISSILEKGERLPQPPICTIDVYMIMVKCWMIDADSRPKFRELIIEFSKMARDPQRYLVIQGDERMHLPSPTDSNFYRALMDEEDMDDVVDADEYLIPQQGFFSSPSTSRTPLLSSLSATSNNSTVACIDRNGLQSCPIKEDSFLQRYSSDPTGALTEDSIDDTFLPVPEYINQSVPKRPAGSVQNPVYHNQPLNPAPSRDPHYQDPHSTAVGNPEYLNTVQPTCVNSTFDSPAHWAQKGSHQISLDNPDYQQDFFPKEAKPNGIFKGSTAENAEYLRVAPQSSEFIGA
Sequence of CLK4 (Q9HAZ1 whole entry): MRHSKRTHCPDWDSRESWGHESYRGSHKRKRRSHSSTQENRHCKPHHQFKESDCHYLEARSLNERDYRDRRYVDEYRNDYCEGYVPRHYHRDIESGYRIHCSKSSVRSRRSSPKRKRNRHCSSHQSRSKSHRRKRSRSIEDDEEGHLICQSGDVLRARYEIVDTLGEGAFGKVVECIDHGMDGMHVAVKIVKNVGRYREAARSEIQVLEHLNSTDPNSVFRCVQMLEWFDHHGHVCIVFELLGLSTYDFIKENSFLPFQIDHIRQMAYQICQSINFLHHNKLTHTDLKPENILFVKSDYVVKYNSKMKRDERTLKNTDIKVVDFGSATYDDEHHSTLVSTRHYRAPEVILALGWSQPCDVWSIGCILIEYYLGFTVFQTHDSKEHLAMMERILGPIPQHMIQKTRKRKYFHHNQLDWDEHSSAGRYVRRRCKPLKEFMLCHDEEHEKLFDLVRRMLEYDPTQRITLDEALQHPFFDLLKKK
Sequence of EGFR Δ746-750/C797S mutant (P00533 other isoform, or with tags, fused parts or gaps C797S/del 1-668/del 746-750 limits assumed): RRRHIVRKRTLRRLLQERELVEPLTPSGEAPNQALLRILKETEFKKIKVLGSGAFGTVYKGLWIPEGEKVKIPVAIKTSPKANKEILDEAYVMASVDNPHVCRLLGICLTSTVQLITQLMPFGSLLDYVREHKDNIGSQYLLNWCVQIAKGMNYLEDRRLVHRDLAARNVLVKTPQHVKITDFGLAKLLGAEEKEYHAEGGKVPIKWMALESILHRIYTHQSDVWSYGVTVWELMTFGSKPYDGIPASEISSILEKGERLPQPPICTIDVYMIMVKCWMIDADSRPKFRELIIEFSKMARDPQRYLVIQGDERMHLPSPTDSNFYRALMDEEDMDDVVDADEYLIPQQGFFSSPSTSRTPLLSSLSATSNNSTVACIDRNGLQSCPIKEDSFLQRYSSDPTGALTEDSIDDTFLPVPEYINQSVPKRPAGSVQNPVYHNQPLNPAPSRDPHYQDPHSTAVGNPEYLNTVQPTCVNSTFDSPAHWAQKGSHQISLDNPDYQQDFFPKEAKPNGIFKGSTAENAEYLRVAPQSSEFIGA
Sequence of CLK1 (P49759 whole entry): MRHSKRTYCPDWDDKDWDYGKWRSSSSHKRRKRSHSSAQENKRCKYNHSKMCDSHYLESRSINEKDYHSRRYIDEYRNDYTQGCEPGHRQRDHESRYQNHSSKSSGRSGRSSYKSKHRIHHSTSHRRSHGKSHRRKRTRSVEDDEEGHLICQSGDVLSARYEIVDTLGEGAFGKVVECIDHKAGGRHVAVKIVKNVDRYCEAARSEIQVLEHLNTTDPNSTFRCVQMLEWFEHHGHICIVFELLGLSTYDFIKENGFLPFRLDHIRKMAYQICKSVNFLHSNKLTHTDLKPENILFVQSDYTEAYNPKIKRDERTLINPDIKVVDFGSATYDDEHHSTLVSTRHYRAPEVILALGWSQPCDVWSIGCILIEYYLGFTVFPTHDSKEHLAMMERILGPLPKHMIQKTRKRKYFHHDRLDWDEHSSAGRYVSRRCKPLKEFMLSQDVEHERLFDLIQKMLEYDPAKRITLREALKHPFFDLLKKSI
Sequence of EGFR WT (P00533 25-1210): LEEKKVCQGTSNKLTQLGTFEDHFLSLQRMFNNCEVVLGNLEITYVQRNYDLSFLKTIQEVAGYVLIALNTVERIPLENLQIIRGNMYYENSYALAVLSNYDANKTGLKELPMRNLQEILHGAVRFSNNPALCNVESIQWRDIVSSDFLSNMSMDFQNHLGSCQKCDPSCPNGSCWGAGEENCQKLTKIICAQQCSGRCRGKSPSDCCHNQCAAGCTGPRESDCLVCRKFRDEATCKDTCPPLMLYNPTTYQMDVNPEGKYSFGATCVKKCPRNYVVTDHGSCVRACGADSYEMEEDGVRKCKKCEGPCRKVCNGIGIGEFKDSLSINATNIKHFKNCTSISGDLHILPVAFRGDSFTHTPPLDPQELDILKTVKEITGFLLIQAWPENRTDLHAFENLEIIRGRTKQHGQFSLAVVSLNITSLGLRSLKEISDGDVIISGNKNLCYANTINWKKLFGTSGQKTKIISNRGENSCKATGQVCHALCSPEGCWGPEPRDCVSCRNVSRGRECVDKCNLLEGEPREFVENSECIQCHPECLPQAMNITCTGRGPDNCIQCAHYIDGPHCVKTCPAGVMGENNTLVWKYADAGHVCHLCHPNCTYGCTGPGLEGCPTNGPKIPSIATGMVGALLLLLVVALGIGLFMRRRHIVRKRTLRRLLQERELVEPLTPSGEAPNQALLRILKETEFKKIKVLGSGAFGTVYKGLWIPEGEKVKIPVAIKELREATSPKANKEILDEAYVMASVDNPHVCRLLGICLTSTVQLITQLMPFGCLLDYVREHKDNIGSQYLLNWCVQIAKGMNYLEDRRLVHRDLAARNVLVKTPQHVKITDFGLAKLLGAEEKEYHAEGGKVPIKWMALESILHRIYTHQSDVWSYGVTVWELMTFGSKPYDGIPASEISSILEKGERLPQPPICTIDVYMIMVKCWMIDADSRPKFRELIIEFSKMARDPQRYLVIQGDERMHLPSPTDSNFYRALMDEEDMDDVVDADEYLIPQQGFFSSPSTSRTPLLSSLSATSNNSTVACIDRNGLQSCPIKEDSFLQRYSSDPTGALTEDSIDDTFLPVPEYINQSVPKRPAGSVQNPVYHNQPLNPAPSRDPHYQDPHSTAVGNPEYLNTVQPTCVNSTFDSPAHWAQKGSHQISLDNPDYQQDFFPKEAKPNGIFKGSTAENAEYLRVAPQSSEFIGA
Sequence of CLK2 (P49760 whole entry): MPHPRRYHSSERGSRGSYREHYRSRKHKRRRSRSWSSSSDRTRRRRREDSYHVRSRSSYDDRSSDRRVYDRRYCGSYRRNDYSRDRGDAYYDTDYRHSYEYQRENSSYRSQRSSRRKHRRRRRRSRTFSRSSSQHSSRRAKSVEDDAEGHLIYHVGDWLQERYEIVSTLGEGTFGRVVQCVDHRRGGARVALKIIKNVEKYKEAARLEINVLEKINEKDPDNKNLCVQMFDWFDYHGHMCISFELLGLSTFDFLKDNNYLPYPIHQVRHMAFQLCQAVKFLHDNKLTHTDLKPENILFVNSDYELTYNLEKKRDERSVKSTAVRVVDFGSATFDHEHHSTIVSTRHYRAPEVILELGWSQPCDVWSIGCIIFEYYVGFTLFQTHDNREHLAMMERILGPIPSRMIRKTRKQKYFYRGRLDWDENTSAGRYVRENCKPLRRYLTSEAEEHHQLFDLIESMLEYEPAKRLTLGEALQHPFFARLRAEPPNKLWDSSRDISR
Sequence of CLK3 (P49761 whole entry): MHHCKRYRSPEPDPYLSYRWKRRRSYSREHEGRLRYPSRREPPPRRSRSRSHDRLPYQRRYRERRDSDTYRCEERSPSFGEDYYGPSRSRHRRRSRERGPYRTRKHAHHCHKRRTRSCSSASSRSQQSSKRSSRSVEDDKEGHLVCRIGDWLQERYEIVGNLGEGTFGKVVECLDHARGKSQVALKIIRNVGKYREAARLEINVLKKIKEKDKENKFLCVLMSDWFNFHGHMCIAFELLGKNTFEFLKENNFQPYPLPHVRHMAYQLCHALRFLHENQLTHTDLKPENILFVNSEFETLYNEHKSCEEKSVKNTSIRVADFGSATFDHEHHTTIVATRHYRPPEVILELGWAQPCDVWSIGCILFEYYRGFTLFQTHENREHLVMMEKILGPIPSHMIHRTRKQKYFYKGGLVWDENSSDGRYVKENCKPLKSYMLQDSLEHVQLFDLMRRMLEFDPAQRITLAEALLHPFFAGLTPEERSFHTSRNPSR

As usually defined, the IC50 is the concentration at which inhibition is half-maximal. As to `Cc1c2c(nn1C)/C=C/c1n[nH]c3ccc(cc13)-c1cnn(C)c1O[C@@H](C)CN(C)C2` [Example 126, (10S,17E)-8,10,12,14,15-pentamethyl-2,10,11,12,13,15-hexahydro-8H-3,5-ethenotripyrazolo[4,3-f:3′,4′-j:4″,3″-n][1,4]oxazacyclopentadecine], the half-maximal inhibitory concentration (IC50) worked out at 164 nM at EGFR WT; 2.8 nM in experiment [1]; 133 nM on EGFR (D770_N771insNPG); 19.8 nM in [2]; 0.49 nM on CLK4; 18.6 nM against EGFR L858R mutant. The IC50 came out at 0.32 nM at CLK1; 16.1 nM at EGFR Δ746-750 mutant; 2.07 nM on EGFR L858R/T790M mutant; 188 nM at CLK3; 0.12 nM on CLK2.
As for `Cc1nn(C)c2c1/C=C/c1n[nH]c3ccc(cc13)-c1cnn(C)c1OCCN(C)C2` [Example 43, (17E)-8,12,14,16-tetramethyl-2,10,11,12,13,14-hexahydro-8H-3,5-ethenotripyrazolo[3,4-f:3′,4′-j:4″,3″- n][1,4]oxazacyclopentadecine], the half-maximal inhibitory concentration (IC50) against EGFR WT turned out to be 543 nM; in experiment [1], 34.5 nM; on EGFR (D770_N771insNPG), 541 nM; in [2] it was 133 nM; on CLK4, 0.25 nM; on EGFR L858R mutant, 144 nM. Further, the IC50 was determined as 0.1 nM at CLK1; 74.8 nM against EGFR Δ746-750 mutant; 13.5 nM against EGFR L858R/T790M mutant; 236 nM on CLK3; 0.14 nM on CLK2.
Turning to `C[C@H]1CN(C)Cc2c(c(OCC#N)nn2CCO)/C=C/c2n[nH]c3ccc(cc23)-c2cnn(C)c2O1` [Example 203, {[(10S,17E)-14-(2-hydroxyethyl)-8,10,12-trimethyl-2,10,11,12,13,14-hexahydro-8H-3,5-ethenotripyrazolo[3,4-f:3′,4′-j:4″,3″- n][1,4]oxazacyclopentadecin-16-yl]oxy}acetonitrile], the half-maximal inhibitory concentration (IC50) against EGFR WT amounted to 0.23 nM; in experiment [1], 0.78 nM; at EGFR (D770_N771insNPG), 0.65 nM; in experiment [2] it was 0.23 nM; on CLK4 it was 1.59 nM; at EGFR L858R mutant, 0.12 nM. In addition, the IC50 amounted to 0.72 nM at CLK1; 0.11 nM against EGFR Δ746-750 mutant; 0.17 nM against EGFR L858R/T790M mutant; 151 nM on CLK3; 0.14 nM on CLK2.
In the case of `CCOc1nn(C)c2c1/C=C/c1n[nH]c3ccc(cc13)-c1cnn(C)c1O[C@@H](C)CN(C(C)C)C2` [Example 156, (10S,17E)-16-ethoxy-8,10,14-trimethyl-12-(propan-2-yl)-2,10,11,12,13,14-hexahydro-8H-3,5-ethenotripyrazolo[3,4-f:3′,4′-j:4″,3″-n][1,4]oxazacyclopentadecine], the IC50 is 19.3 nM against EGFR WT; 1.04 nM in experiment [1]; 64.9 nM at EGFR (D770_N771insNPG); 3.62 nM in experiment [2]; 0.4 nM at CLK4; 4.34 nM at EGFR L858R mutant. The IC50 on CLK1 was found to be 0.42 nM; against EGFR Δ746-750 mutant it was 1.77 nM; against EGFR L858R/T790M mutant, 0.88 nM; on CLK3 it was 63.6 nM; at CLK2, 0.13 nM.
In the case of `CCc1noc2c1/C=C/c1n[nH]c3ccc(cc13)-c1cnn(C)c1O[C@@H](C)CN(C)C2` [Example 174, (10S,17E)-16-ethyl-8,10,12-trimethyl-2,8,10,11,12,13-hexahydro-3,5-etheno[1,2]oxazolo[5,4-f]dipyrazolo[3,4-j:4′,3′-n][1,4]oxazacyclopentadecine], the concentration for half-maximal inhibition (IC50) is 752 nM on EGFR WT; 4.88 nM in [1]; 996 nM on EGFR (D770_N771insNPG); 27.2 nM in [2]; 0.51 nM on CLK4; 127 nM against EGFR L858R mutant. Moreover, the IC50 on CLK1 is 0.16 nM; at EGFR Δ746-750 mutant, 133 nM; against EGFR L858R/T790M mutant it was 10.9 nM; at CLK3 it was 128 nM; at CLK2, 0.21 nM.
With `CC(C)Oc1nn(CCO)c2c1/C=C/c1n[nH]c3ccc(cc13)-c1cnn(C3CC3)c1O[C@@H](C)CN(C)C2` [Example 246, 2-{(10S,17E)-8-cyclopropyl-10,12-dimethyl-16-[(propan-2-yl)oxy]-2,8,10,11,12,13-hexahydro-14H-3,5-ethenotripyrazolo[3,4-f:3′,4′-j:4″,3″-n][1,4]oxazacyclopentadecin-14-yl}ethan-1-ol], the IC50 on EGFR WT was 23.3 nM; in experiment [1], 4.42 nM; at EGFR (D770_N771insNPG), 39.5 nM; in experiment [2], 3.18 nM; on CLK4, 1.33 nM; at EGFR L858R mutant, 5.14 nM. The IC50 on CLK1 stood at 0.75 nM; against EGFR Δ746-750 mutant, 8.71 nM; against EGFR L858R/T790M mutant, 1.71 nM; at CLK3, 386 nM; on CLK2, 1.36 nM.
As to `C[C@H]1CN(C)Cc2c(c(OCC(F)(F)F)nn2CCO)/C=C/c2n[nH]c3cc(F)c(cc23)-c2cnn(C)c2O1` [Example 211, 2-[(10S,17E)-19-fluoro-8,10,12-trimethyl-16-(2,2,2-trifluoroethoxy)-2,8,10,11,12,13-hexahydro-14H-3,5-ethenotripyrazolo[3,4-f:3′,4′-j:4″,3″- n][1,4]oxazacyclopentadecin-14-yl]ethan-1-ol], the half-maximal inhibitory concentration (IC50) against EGFR WT is greater than 1000 nM; in [1], greater than 1000 nM; on EGFR (D770_N771insNPG), greater than 1000 nM; in experiment [2], 2870 nM; on CLK4 it was 397 nM; on EGFR L858R mutant, 400 nM. Besides, the half-maximal inhibitory concentration (IC50) on CLK1 was 270 nM; against EGFR Δ746-750 mutant, greater than 1000 nM; on EGFR L858R/T790M mutant, greater than 1000 nM; at CLK3, 1 nM; on CLK2, 114 nM.
Consider `Cc1nn(C)c2c1/C=C/c1n[nH]c3ccc(cc13)-c1cnn(C)c1O[C@@H]1CCN(C2)C1` [Example 167, (10R,18E)-8,15,17-trimethyl-2,8,11,12,14,15-hexahydro-10H-3,5-etheno-10,13-methanotripyrazolo[3,4-g:3′,4′-k:4″,3″- 0][1,5]oxazacyclohexadecine], for which the 50% inhibitory concentration (IC50) against EGFR WT turned out to be 123 nM; in [1], 8.89 nM; at EGFR (D770_N771insNPG) it was 47.1 nM; in [2], 13.6 nM; on CLK4, 0.55 nM; at EGFR L858R mutant it was 35.7 nM. Further, the IC50 at CLK1 was determined as 0.38 nM; at EGFR Δ746-750 mutant, 23.8 nM; on EGFR L858R/T790M mutant it was 3.42 nM; at CLK3 it was 108 nM; on CLK2, 0.23 nM.
As for `C[C@H](C#N)Oc1nn(CCO)c2c1/C=C/c1n[nH]c3cc(F)c(cc13)-c1cnn(C)c1O[C@@H](C)CN(C)C2` [Ex. 268, (2R)-2-{[(10S,17E)-19-fluoro-14-(2-hydroxyethyl)-8,10,12-trimethyl-2,10,11,12,13,14-hexahydro-8H-3,5-ethenotripyrazolo[3,4-f:3′,4′-j:4″,3″-n][1,4]oxazacyclopentadecin-16-yl]oxy}propanenitrile], the IC50 against EGFR WT was found to be 7.91 nM; in experiment [1], 0.52 nM; at EGFR (D770_N771insNPG), 30.5 nM; in experiment [2] it was 1.32 nM; on CLK4 it was 1.22 nM; at EGFR L858R mutant, 4.35 nM. Moreover, the IC50 on CLK1 turned out to be 0.57 nM; at EGFR Δ746-750 mutant, 2.01 nM; against EGFR L858R/T790M mutant it was 1.04 nM; at CLK3, 45.1 nM; at CLK2, 0.18 nM.
With `C[C@@H](C#N)Oc1nn(CCO)c2c1/C=C/c1n[nH]c3cc(F)c(cc13)-c1cnn(C)c1O[C@@H](C)CN(C)C2` [Ex. 269, (2S)-2-{[(10S,17E)-19-fluoro-14-(2-hydroxyethyl)-8,10,12-trimethyl-2,10,11,12,13,14-hexahydro-8H-3,5-ethenotripyrazolo[3,4-f:3′,4′-j:4″,3″-n][1,4]oxazacyclopentadecin-16-yl]oxy}propanenitrile], the half-inhibitory concentration (IC50) came to 20.3 nM at EGFR WT; 0.67 nM in experiment [1]; 102 nM on EGFR (D770_N771insNPG); 2.56 nM in experiment [2]; 1.76 nM on CLK4; 8.53 nM against EGFR L858R mutant. The IC50 at CLK1 was determined as 0.94 nM; at EGFR Δ746-750 mutant, 5.25 nM; at EGFR L858R/T790M mutant it was 1.82 nM; at CLK3 it was 238 nM; at CLK2, 0.32 nM.
